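Cultured in 96-well plates, cells were exposed to test compound for 48 hours across five concentrations. GI50: concentration for 50% inhibition of growth. The concentration for full growth arrest is given as TGI.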
Legend:
Test in all cases: NCI anticancer screen, dose series, 48 h
[1] = tested on: SK-MEL-2 melanoma
[2] = tested on: T-47D breast
[3] = tested on: OVCAR-4 ovarian
[4] = tested on: SK-MEL-28 melanoma
[5] = tested on: 786-0 renal
[6] = tested on: HOP-62 NSCLC
[7] = tested on: M14 melanoma
[8] = tested on: MDA-MB-435
[9] = tested on: A549 NSCLC
[10] = tested on: SF-268 CNS
[11] = tested on: HT29 colon
[12] = tested on: HCT-15 colon
[13] = tested on: RXF 393 renal
[14] = tested on: DU-145 prostate
[15] = tested on: COLO 205 colon
[16] = tested on: SN12C renal
[17] = tested on: NCI/ADR-RES ovarian
[18] = tested on: CCRF-CEM leukemia
[19] = tested on: K-562 leukemia
[20] = tested on: HS 578T breast
[21] = tested on: PC-3 prostate
[22] = tested on: SF-539 CNS
[23] = tested on: SR leukemia
[24] = tested on: KM12 colon
[25] = tested on: SK-MEL-5 melanoma
[26] = tested on: SK-OV-3 ovarian
[27] = tested on: NCI-H226 lung
[28] = tested on: CAKI-1 renal
[29] = tested on: LOX IMVI melanoma
[30] = tested on: NCI-H23 lung
[31] = tested on: NCI-H460 lung
[32] = tested on: UACC-62 melanoma
[33] = tested on: HCC-2998 colon
[34] = tested on: MALME-3M melanoma
[35] = tested on: NCI-H522 lung
[36] = tested on: MOLT-4 leukemia
[37] = tested on: HCT-116 colon
[38] = tested on: U251 CNS
[39] = tested on: SW-620 colon
[40] = tested on: OVCAR-3 ovarian
[41] = tested on: ACHN renal
[42] = tested on: UO-31 renal
[43] = tested on: UACC-257 melanoma
[44] = tested on: BT-549 breast
[45] = tested on: SNB-75 CNS
[46] = tested on: OVCAR-8 ovarian
[47] = tested on: A498 renal
[48] = tested on: HOP-92 NSCLC
[49] = tested on: TK-10 renal
[50] = tested on: SF-295 CNS
[51] = tested on: OVCAR-5 ovarian
[52] = tested on: MDA-MB-231 breast
[53] = tested on: EKVX NSCLC
[54] = tested on: MCF7 breast
[55] = tested on: HL-60(TB) leukemia
[56] = tested on: RPMI-8226 leukemia
[57] = tested on: IGROV1 ovarian
[58] = tested on: SNB-19 CNS

O=c1[nH]c2ccc(N=Cc3c(O)[nH]c4ccccc34)cc2[nH]1
GI50 [1]: > 25 µM
TGI [1]: > 25 µM
GI50 [2]: > 25 µM
TGI [2]: > 25 µM
GI50 [3]: > 25 µM
TGI [3]: > 25 µM
GI50 [4]: > 25 µM
TGI [4]: > 25 µM
GI50 [5]: > 25 µM
TGI [5]: > 25 µM
GI50 [6]: > 17.7 µM
TGI [6]: > 25 µM
GI50 [7]: > 25 µM
TGI [7]: > 25 µM
GI50 [8]: > 25 µM
TGI [8]: > 25 µM
GI50 [9]: > 25 µM
TGI [9]: > 25 µM
GI50 [10]: > 13.8 µM
TGI [10]: > 25 µM
GI50 [11]: > 25 µM
TGI [11]: > 25 µM
GI50 [12]: > 25 µM
TGI [12]: > 25 µM
GI50 [13]: > 25 µM
TGI [13]: > 25 µM
GI50 [14]: > 20.4 µM
TGI [14]: > 25 µM
GI50 [15]: > 25 µM
TGI [15]: > 25 µM
GI50 [16]: > 25 µM
TGI [16]: > 25 µM
GI50 [17]: > 25 µM
TGI [17]: > 25 µM
GI50 [18]: 24.2 µM
TGI [18]: > 25 µM
GI50 [19]: > 25 µM
TGI [19]: > 25 µM
GI50 [20]: > 6.4 µM
TGI [20]: > 25 µM
GI50 [21]: > 25 µM
TGI [21]: > 25 µM
GI50 [22]: > 25 µM
TGI [22]: > 25 µM
GI50 [23]: > 25 µM
TGI [23]: > 25 µM
GI50 [24]: > 25 µM
TGI [24]: > 25 µM
GI50 [25]: > 25 µM
TGI [25]: > 25 µM
GI50 [26]: > 25 µM
TGI [26]: > 25 µM
GI50 [27]: > 25 µM
TGI [27]: > 25 µM
GI50 [28]: > 25 µM
TGI [28]: > 25 µM
GI50 [29]: > 25 µM
TGI [29]: > 25 µM
GI50 [30]: > 25 µM
TGI [30]: > 25 µM
GI50 [31]: > 25 µM
TGI [31]: > 25 µM
GI50 [32]: > 25 µM
TGI [32]: > 25 µM
GI50 [33]: > 25 µM
TGI [33]: > 25 µM
GI50 [34]: > 25 µM
TGI [34]: > 25 µM
GI50 [35]: > 25 µM
TGI [35]: > 25 µM
GI50 [36]: > 25 µM
TGI [36]: > 25 µM
GI50 [37]: > 25 µM
TGI [37]: > 25 µM
GI50 [38]: 18.6 µM
TGI [38]: > 25 µM
GI50 [39]: > 25 µM
TGI [39]: > 25 µM
GI50 [40]: > 25 µM
TGI [40]: > 25 µM
GI50 [41]: > 25 µM
TGI [41]: > 25 µM
GI50 [42]: > 25 µM
TGI [42]: > 25 µM
GI50 [43]: > 25 µM
TGI [43]: > 25 µM
GI50 [44]: > 25 µM
TGI [44]: > 25 µM
GI50 [45]: > 14.7 µM
TGI [45]: > 25 µM
GI50 [46]: > 25 µM
TGI [46]: > 25 µM
GI50 [47]: > 25 µM
TGI [47]: > 25 µM
GI50 [48]: 23.2 µM
TGI [48]: > 25 µM
GI50 [49]: > 25 µM
TGI [49]: > 25 µM
GI50 [50]: > 25 µM
TGI [50]: > 25 µM
GI50 [51]: > 25 µM
TGI [51]: > 25 µM
GI50 [52]: > 25 µM
TGI [52]: > 25 µM
GI50 [53]: > 25 µM
TGI [53]: > 25 µM
GI50 [54]: > 25 µM
TGI [54]: > 25 µM
GI50 [55]: > 25 µM
TGI [55]: > 25 µM
GI50 [56]: > 25 µM
TGI [56]: > 25 µM
GI50 [57]: > 25 µM
TGI [57]: > 25 µM
GI50 [58]: > 25 µM
TGI [58]: > 25 µM

From PubChem BioAssay (NCI)
